Test results as given in patent US6750224B1, “Antibacterial optically pure benzoquinolizine carboxylic acids, processes, compositions and methods of treatment” (priority 1999, dated 2004).
In brackets after ≈: the same amount, converted by molar mass. Marks after values point to notes of the source that are not given here.

Experiments:
[1] = pH 6.8
[2] = Acute intravenous toxicity in mice; conditions: acute intravenous, mice
MRSE STE-22 = assay: In-vitro antimicrobial activity test (MIC, NCCLS); format: cell-based, Staphylococcus epidermidis
Description: (§1) The test method was in accordance with the standard NCCLS protocol.

[3] = tested on: S.aureus strain bearing Nor A efflux pump; format: cell-based; conditions: Nor A efflux pump strain vs strain devoid of efflux pump
Experimental: Using this set of MIC values, % loss in potency due to efflux was calculated for each of the fluoroquinolone in Table 5

in vivo = assay: in vivo; parameters: species or system Swiss mice; conditions: mouse
Experimental: The blood levels of RS-(±)-Nadifloxacin and S-(−)-Nadifloxacin administered orally to Swiss mice at a dose of 30mg/kg are shown in Table 3 with respect to the AUC (μg/ml.hr), monitored from 15 minutes to 4 hours.

[4] = in vivo
[5] = tested on: human liver cell-line Hep-G2; assay: Human liver cell line cytotoxicity assay (Minimum Toxic Dose); format: cell-based; conditions: 3 hours exposure, 4 days incubation, Almar blue
Experimental: The procedure involved cultivation of cells of human liver cell-line Hep-G2 in DMEM medium containing 5% foetal bovine and exposure to various concentrations of trovafloxacin and S-(−)-Nadifloxacin for 3 hours. The drug containing medium was then replaced with a fresh medium and cells were incubated in 5% CO2 atmosphere at 37° C. for 4 days. Almar blue dye which is an indicative of active respiration was then added to individual sample to access the toxicity of the drugs. The hepatotoxic potential of a drug is expressed in terms of Minimum Toxic Dose (MTD) which is defined as minimum concentration of a drug which brings about inhibition of colour change from blue to pink.

Serratia marcescens = assay: In-vitro antimicrobial activity test (MIC, NCCLS); format: cell-based
Description: as §1

Mycobacterium avium = assay: In-vitro antimicrobial activity test (MIC, NCCLS); format: cell-based
Description: as §1

[6] = tested on: Streptococcus pneumoniae ATCC 6303; assay: In-vitro antimicrobial activity test (MIC, NCCLS); format: cell-based
Description: as §1

[7] = tested on: Escherichia coli ATCC 25922; assay: In-vitro antimicrobial activity test (MIC, NCCLS); format: cell-based
Description: as §1

[8] = tested on: Staphylococcus aureus ATCC 25923; assay: In-vitro antimicrobial activity test (MIC, NCCLS); format: cell-based
Description: as §1

Bacteroides fragilis = assay: In-vitro antimicrobial activity test (MIC, NCCLS); format: cell-based
Description: as §1

Propioni bacterium acnes = assay: In-vitro antimicrobial activity test (MIC, NCCLS); format: cell-based
Description: as §1

Haemophilus influenzae = assay: In-vitro antimicrobial activity test (MIC, NCCLS); format: cell-based
Description: as §1

[9] = tested on: Mycobacterium intracellulare; assay: In-vitro antimicrobial activity test (MIC, NCCLS); format: cell-based
Description: as §1

Streptococcus pyogenes = assay: In-vitro antimicrobial activity test (MIC, NCCLS); format: cell-based
Description: as §1

[10] = tested on: Enterococcus faecalis ATCC 29212; assay: In-vitro antimicrobial activity test (MIC, NCCLS); format: cell-based
Description: as §1

Corynebacterium jeikeium = assay: In-vitro antimicrobial activity test (MIC, NCCLS); format: cell-based
Description: as §1

Enterococcus faecium = assay: In-vitro antimicrobial activity test (MIC, NCCLS); format: cell-based
Description: as §1

[11] = tested on: Mycobacterium tuberculosis ATCC 27294; assay: In-vitro antimicrobial activity test (MIC, NCCLS); format: cell-based
Description: as §1

[12] = tested on: Chryseobacterium meningosepticum; assay: In-vitro antimicrobial activity test (MIC, NCCLS); format: cell-based
Description: as §1

Pseudomonas aeruginosa = assay: In-vitro antimicrobial activity test (MIC, NCCLS); format: cell-based
Description: as §1

[13] = tested on: Viridans group Streptococci; assay: In-vitro antimicrobial activity test (MIC, NCCLS); format: cell-based
Description: as §1

[14] = tested on: Gram-positive and Gram-negative bacteria; conditions: cited from earlier work
[15] = mouse, in vivo
P. rettgeri N 1764 = assay: Effect of pH on potency of fluoroquinolones (MIC at pH 5.5 and 7.0); format: cell-based; conditions: MIC pH 7 vs pH 5.5
Description: (§2) The test method was in accordance with the standard NCCLS protocol employing test media adjusted at pH 5.5 and 7.0.

Serratia marcescens 2702 = assay: as above; format: cell-based; conditions: MIC pH 7 vs pH 5.5
Description: as §2

MRSA STA-4 = assay: In-vitro antimicrobial activity test (MIC, NCCLS); format: cell-based, Staphylococcus aureus
Description: as §1

[16] = tested on: Mupirocin-resistant Staph STA-34; assay: In-vitro antimicrobial activity test (MIC, NCCLS); format: cell-based, Staphylococcus aureus
Description: as §1

[17] = tested on: Gram-positive pathogens such as staphylococci and enterococci, and Gram-negative pathogens such as E.coli, Klebsiella, Proteus, Serratia, Citrobacter, and …; assay: Antibacterial potency (MIC) at acidic pH of 5.5, summary; format: cell-based; conditions: acidic pH of 5.5, some organisms

CC(=O)O.C[C@@H](N)C(=O)OC1CCN(c2c(F)cc3c(=O)c(C(=O)O)cn4c3c2CC[C@@H]4C)CC1 [Example 30, 8-{4-[2(R)-Amino-propionyloxy]piperidin-1-yl}-9-fluoro-5(S)-methyl-6,7-dihydro-1-oxo-1H,5H-benzo[i,j]quinolizine-2-carboxylic acid, acetate]
Water solubility [1]: >250 mg/mL

C[C@H]1CCc2c(N3CCC(O)CC3)c(F)cc3c(=O)c(C(=O)O)cn1c23 [S-(−)-Nadifloxacin, S-(−)-9-fluoro-8-(4-hydroxy-piperidin-1-yl)-5-methyl-6,7-dihydro-1-oxo-1H,5H benzo[i,j]quinolizine-2-carboxylic acid]
LD50 [2]: >400* mg/kg | MIC (MRSE STE-22): 0.4 µg/mL (≈ 1.11 µM) | % loss in potency for S. aureus bearing Efflux pump [3]: 0% | oral bioavailability, times higher than RS-(±)-Nadifloxacin (in vivo): 2 times | AUC (in vivo; po, 30 mg/kg): 33580 ng·h/mL | phototoxicity potential [4]: negligible phototoxicity potential | dosage tolerated by Hep-G-2 cells, times higher than trovafloxacin [5]: 4 times | MIC (Serratia marcescens): 0.4 µg/mL (≈ 1.11 µM) | MIC (Mycobacterium avium): 3.12 µg/mL (≈ 8.66 µM) | MIC [6]: 0.2 µg/mL (≈ 0.555 µM) | MIC [7]: 0.2 µg/mL (≈ 0.555 µM) | MIC [8]: 0.025 µg/mL (≈ 0.0694 µM) | MIC (Bacteroides fragilis): 0.8 µg/mL (≈ 2.22 µM) | MIC (Propioni bacterium acnes): 0.1 µg/mL (≈ 0.277 µM) | MIC (Haemophilus influenzae): 0.025 µg/mL (≈ 0.0694 µM) | MIC [9]: 1.56 µg/mL (≈ 4.33 µM) | MIC (Streptococcus pyogenes): 0.2 µg/mL (≈ 0.555 µM) | MIC [10]: 0.2 µg/mL (≈ 0.555 µM) | MIC (Corynebacterium jeikeium): 0.05 µg/mL (≈ 0.139 µM) | MIC (Enterococcus faecium): 0.4 µg/mL (≈ 1.11 µM) | MIC [11]: 0.8 µg/mL (≈ 2.22 µM) | MIC [12]: 0.8 µg/mL (≈ 2.22 µM) | MIC (Pseudomonas aeruginosa): 1.56 µg/mL (≈ 4.33 µM) | MIC [13]: 0.2 µg/mL (≈ 0.555 µM) | in-vitro activity compared with racemic Nadifloxacin [14]: approximtely twice as active | acute intravenous toxicity compared with RS-(±)-Nadifloxacin [15]: significantly lower | % change in potency at pH 5.5, loss (−)/gain (+) (P. rettgeri N 1764): 0.00% | % change in potency at pH 5.5, loss (−)/gain (+) (Serratia marcescens 2702): 0.00% | MIC (MRSA STA-4): 0.4 µg/mL (≈ 1.11 µM) | MIC [16]: 0.4 µg/mL (≈ 1.11 µM) | MIC improves by [17]: 100%
